Laboratory results taken from the supplement of paper PMC10307832.

Experiments:
Test in all cases: relative viability (nuclei count vs DMSO), 5 days (fraction); higher = more cells survive
Crenolanib + Alpelisib = compound: CC1(COc2ccc3c(c2)ncn3-c2ccc3cccc(N4CCC(N)CC4)c3n2)COC1 [Crenolanib] + Cc1nc(NC(=O)N2CCC[C@H]2C(N)=O)sc1-c1ccnc(C(C)(C)C(F)(F)F)c1 [Alpelisib] (partner 2 µM)
How it was run: (§1)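 For relative viability, nuclei counts in treated wells were divided by those in vehicle wells. Lung cancer cell lines had been pin-tool dosed in 1536-well plates the day after seeding and cultured for 5 days, then fixed and stained in one step (final 0.05% Triton X-100, 1% formaldehyde, 1 ug/ml Hoechst) and imaged at 4×. Doses were one drug alone or a fixed anchor-drug dose plus five library-drug doses (not always all listed) in √10 steps, and values are duplicate-plate medians.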

Crenolanib + Dasatinib = compound: CC1(COc2ccc3c(c2)ncn3-c2ccc3cccc(N4CCC(N)CC4)c3n2)COC1 [Crenolanib] + Cc1nc(Nc2ncc(C(=O)Nc3c(C)cccc3Cl)s2)cc(N2CCN(CCO)CC2)n1 [Dasatinib] (partner 0.075 µM)
How it was run: as §1

Tivantinib + Foretinib = compound: O=C1NC(=O)[C@@H](c2cn3c4c(cccc24)CCC3)[C@@H]1c1c[nH]c2ccccc12 [Tivantinib] + COc1cc2c(Oc3ccc(NC(=O)C4(C(=O)Nc5ccc(F)cc5)CC4)cc3F)ccnc2cc1OCCCN1CCOCC1 [Foretinib] (partner 0.25 µM)
How it was run: as §1

Tivantinib + Crizotinib = compound: O=C1NC(=O)[C@@H](c2cn3c4c(cccc24)CCC3)[C@@H]1c1c[nH]c2ccccc12 [Tivantinib] + C[C@@H](Oc1cc(-c2cnn(C3CCNCC3)c2)cnc1N)c1c(Cl)ccc(F)c1Cl [Crizotinib] (partner 1 µM)
How it was run: as §1

Cell Line	relative viability (Crenolanib + Alpelisib; first compound 0.01 µM)	relative viability (Crenolanib + Alpelisib; first compound 0.03162 µM)	relative viability (Crenolanib + Alpelisib; first compound 0.1 µM)	relative viability (Crenolanib + Alpelisib; first compound 0.3162 µM)	relative viability (Crenolanib + Alpelisib; first compound 1 µM)	relative viability (Crenolanib + Dasatinib; first compound 0.01 µM)	relative viability (Crenolanib + Dasatinib; first compound 0.03162 µM)	relative viability (Crenolanib + Dasatinib; first compound 0.1 µM)	relative viability (Crenolanib + Dasatinib; first compound 0.3162 µM)	relative viability (Crenolanib + Dasatinib; first compound 1 µM)	relative viability (Tivantinib + Foretinib; first compound 0.01 µM)	relative viability (Tivantinib + Foretinib; first compound 0.03162 µM)	relative viability (Tivantinib + Foretinib; first compound 0.1 µM)	relative viability (Tivantinib + Foretinib; first compound 0.3162 µM)	relative viability (Tivantinib + Crizotinib; first compound 0.01 µM)	relative viability (Tivantinib + Crizotinib; first compound 0.03162 µM)	relative viability (Tivantinib + Crizotinib; first compound 0.1 µM)	relative viability (Tivantinib + Crizotinib; first compound 0.3162 µM)
NCI-H358	0.897	1.01	0.756	0.991	0.605	0.146	0.187	0.188	0.162	0.168	0.716	0.754	0.508	0.273	0.651	0.574	0.709	0.301
NCI-H441	0.708		0.888	0.732	0.792	0.555	0.669	0.601	0.681	0.578	0.749	1.1	1.01	0.876	0.847	0.725	0.546	0.801
NCI-H460	0.571	0.54	0.41	0.709	0.265	0.506	0.461	0.531	0.565	0.522	0.935	1.06	0.94	0.97	0.878	0.884	0.848	0.217
NCI-H520	0.868	0.878	0.863	0.99	0.848	0.244	0.194	0.197	0.244	0.309	0.869	0.792	0.655	0.708	0.797	0.764	0.758	1.05
NCI-H596	0.435	0.531	0.494	0.478	0.536	0.716	0.655	0.627	0.675	0.538	0.855	0.835	1.1	0.895	1.08	0.92	0.987	0.905
NCI-H647	1.16	1.28	1.04	1.21	1.11	0.175	0.209	0.196	0.189	0.201	1.25	1.18	1.12	1.21	1.18	1.07	1.03	0.995
NCI-H650	1.14	1.13	0.972	1.06	1.07	0.493	0.472	0.425	0.404	0.356	1.03	0.987	0.989	0.822	0.728		0.629	0.557
NCI-H661	0.894	0.609	0.479	0.597	0.542	0.958	0.845	0.864	0.992	1.09	1.01	1.04	0.968	0.686	0.914	1	0.962	0.736
NCI-H727	0.609	0.671	0.563	0.665	0.627	0.348	0.364	0.338	0.347	0.49	0.829	0.857	0.629	0.732	0.764	0.96	0.88	
